# Data as given in patent US20250145635A1, “COMPOUND CONTAINING BIS(AZANYLYLIDENE) SULFONYL STRUCTURE AND USE THEREOF IN MEDICINE” (SCINNOHUB PHARMACEUTICAL CO., LTD., priority 2021, published 2025).
# Molecular target: recombinant human PKR enzyme (Homo sapiens (Human), UniProt P30613)
# Test: Pyruvate kinase (PKR) activity experiment
# Type: biochemical
# Conditions: activation of recombinant human PKR enzyme
# Procedure: • 1). A recombinant human PKR enzyme solution was formulated at a concentration of 60 ng/well (a 20 μL reaction system), and 5 μL of the solution was added into each well of a black transparent bottom 384-well plate. • 2). Compound solutions were formulated at different concentrations, with the final concentrations of 1000/300/100 nM (containing 1% DMSO). Each 5 μL of the compound solution was added into the plate in item 3.1 and mixed well. The plate was incubated at room temperature for 10 min. • 3). A reaction system was formulated according to the instructions of a kit (as shown in the table below), and 10 μL of the reaction system was added into each well of the 384-well plate, and mixed uniformly with the solution in item 3.2.
# • 4). The 384-well plate was placed on a microplate reader to detect the fluorescence value at 540/590 nm, where the value was read every 2 minutes and the detection was conducted continuously for 1 hour. • 5). The Slope value within the detection time was calculated, and the 0.1% DMSO well was used as a control well to calculate a compound activation rate.
# [formula] • 6). Fitting dose-effect curve
# With the log value of the compound concentration as the X axis and the percentage activation rate as the Y axis, a dose-effect curve was fitted with the log(agonist) vs. response-variable slope of the analysis software GraphPad Prism 5, and the AC50 value of the activity of each compound against PKR was obtained.
# Chain of recombinant human PKR enzyme (P30613 whole entry): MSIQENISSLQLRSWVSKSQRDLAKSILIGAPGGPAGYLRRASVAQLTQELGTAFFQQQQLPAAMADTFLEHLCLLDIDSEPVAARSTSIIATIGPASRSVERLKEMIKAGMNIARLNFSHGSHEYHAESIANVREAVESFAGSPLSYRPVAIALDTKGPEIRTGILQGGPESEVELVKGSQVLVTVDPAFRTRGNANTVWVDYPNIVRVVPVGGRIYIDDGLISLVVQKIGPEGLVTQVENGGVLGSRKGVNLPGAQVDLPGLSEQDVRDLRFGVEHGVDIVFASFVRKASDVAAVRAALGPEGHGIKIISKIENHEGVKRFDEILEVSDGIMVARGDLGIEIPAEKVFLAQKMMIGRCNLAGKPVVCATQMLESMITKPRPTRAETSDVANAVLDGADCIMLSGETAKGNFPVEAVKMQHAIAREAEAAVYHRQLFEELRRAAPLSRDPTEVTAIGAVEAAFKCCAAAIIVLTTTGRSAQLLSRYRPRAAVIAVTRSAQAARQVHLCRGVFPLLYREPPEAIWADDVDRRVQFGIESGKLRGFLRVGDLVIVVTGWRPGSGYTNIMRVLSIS
row,AC50,Compound
1,300 to 1000 nM,"O=C(C(CO)c1ccc(F)cc1)N1CC(=C2CN(S(=O)(=O)c3ccc4c(c3)OC(F)(F)O4)C2)C1 (centres unmarked) [Compound 36, 1-(1′-((2,2-difluorobenzo[d][1,3]dioxolan-5-yl)sulfonyl)-1′,4′-dihydro-2H,2′H-[3,3′-diazetidinylidene]-1(4H)-yl)-2-(4-fluorophenyl)-3-hydroxypropan-1-one]"
2,< 100 nM,"O=C(N1CC(=C2CN(S(=O)(=O)c3ccc(OC(F)F)cc3)C2)C1)C1(c2ccccc2)CCOC1 (centres unmarked) [Compound 37, (1′-((4-(difluoromethoxy)phenyl)sulfonyl)-1′,4′-dihydro-2H,2′H-[3,3′-diazetidinylidene]-1(4H)-yl)(3-phenyltetrahydrofuran-3-yl)methanone]"
3,300 to 1000 nM,"CNCC(C(=O)N1CC(=C2CN(S(=O)(=O)c3ccc4ncsc4c3)C2)C1)c1ccc(F)c(Cl)c1 (centres unmarked) [Compound 38, 1-(1′-(benzo[d]thiazol-6-ylsulfonyl)-1′,4′-dihydro-2H,2′H-[3,3′-diazetidinylidene]-1(4H)-yl)-2-(3-chloro-4-fluorophenyl)-3-(methylamino)propan-1-one]"
4,< 100 nM,"CN1CCOc2ccc(S(=O)(=O)N3CC(=C4CN(C(=O)[C@H](CO)c5ccccc5)C4)C3)cc21 [Compound 39, (S)-3-hydroxy-1-(1′-((4-methyl-3,4-dihydro-2H-benzo[b][1,4]oxazin-6-yl)sulfonyl)-1′,4′-dihydro-2H,2′H-[3,3′-diazetidinylidene]-1(4H)-yl)-2-phenylpropan-1-one]"
5,101 to 300 nM,"O=C1COc2ccc(S(=O)(=O)N3CC(=C4CN(C(=O)[C@H](CO)c5ccccc5)C4)C3)cc2N1 [Compound 40, (S)-6-((1′-(3-hydroxy-2-phenylpropionyl)-1′,4′-dihydro-2H,2′H-[3,3′-diazetidinylidene]-1(4H)-yl)sulfonyl)-2H-benzo[b][1,4]oxazine-3(4H)-one]"
6,300 to 1000 nM,"CN1C(=O)COc2ccc(S(=O)(=O)N3CC(=C4CN(C(=O)[C@H](CO)c5ccccc5)C4)C3)cc21 [Compound 41, (S)-6-((1′-(3-hydroxy-2-phenylpropionyl)-1′,4′-dihydro-2H,2′H-[3,3′-diazetidinylidene]-1(4H)-yl)sulfonyl)-4-methyl-2H-benzo[b][1,4]oxazine-3(4H)-one]"
7,300 to 1000 nM,"CN(C)CC(C(=O)N1CC(=C2CN(S(=O)(=O)c3ccc4ncsc4c3)C2)C1)c1ccc(F)c(Cl)c1 (centres unmarked) [Compound 42, 1-(1′-(benzo[d]thiazol-6-ylsulfonyl)-1′,4′-dihydro-2H,2′H-[3,3′-diazetidinylidene]-1(4H)-yl)-2-(3-chloro-4-fluorophenyl)-3-(dimethylamino)propan-1-one]"
8,300 to 1000 nM,"CN1CCN(c2cccc(C(O)C(=O)N3CC(=C4CN(S(=O)(=O)c5ccc6ncsc6c5)C4)C3)c2)CC1 (centres unmarked) [Compound 43, 1-(1′-(benzo[d]thiazol-6-ylsulfonyl)-1′,4′-dihydro-2H,2′H-[3,3′-diazetidinylidene]-1(4H)-yl)-2-hydroxy-2-(3-(4-methylpiperazin-1-yl)phenyl)ethan-1-one]"
9,< 100 nM,"COc1ccc(C(CO)C(=O)N2CC(=C3CN(S(=O)(=O)c4ccc5ncsc5c4)C3)C2)cc1 (centres unmarked) [Compound 44, 1-(1′-(benzo[d]thiazol-6-ylsulfonyl)-1′,4′-dihydro-2H,2′H-[3,3′-diazetidinylidene]-1(4H)-yl)-3-hydroxy-2-(4-methoxyphenyl)propan-1-one]"
10,< 100 nM,"Cc1ccc(C(CO)C(=O)N2CC(=C3CN(S(=O)(=O)c4ccc5ncsc5c4)C3)C2)cc1 (centres unmarked) [Compound 45, 1-(1′-(benzo[d]thiazol-6-ylsulfonyl)-1′,4′-dihydro-2H,2′H-[3,3′-diazetidinylidene]-1(4H)-yl)-3-hydroxy-2-(p-tolyl)propan-1-one]"
11,< 100 nM,"O=C(C(CO)c1cccc(F)c1)N1CC(=C2CN(S(=O)(=O)c3ccc4ncsc4c3)C2)C1 (centres unmarked) [Compound 46, 1-(1′-(benzo[d]thiazol-6-ylsulfonyl)-1′,4′-dihydro-2H,2′H-[3,3′-diazetidinylidene]-1(4H)-yl)-2-(3-fluorophenyl)-3-hydroxypropan-1-one]"
